Patent US20200181104A1, “SSAO INHIBITORS AND USES THEREOF” (METACRINE, INC., priority 2018, published 2020)
Structures can show the parent of a compound that is named as a salt.

Target: T1, Recombinant Human SSAO/VAP-1/AOC3 (Homo sapiens, UniProt Q16853)
T1 construct: purchased R&D systems 3957-AO
T1 sequence (Q16853 1-763): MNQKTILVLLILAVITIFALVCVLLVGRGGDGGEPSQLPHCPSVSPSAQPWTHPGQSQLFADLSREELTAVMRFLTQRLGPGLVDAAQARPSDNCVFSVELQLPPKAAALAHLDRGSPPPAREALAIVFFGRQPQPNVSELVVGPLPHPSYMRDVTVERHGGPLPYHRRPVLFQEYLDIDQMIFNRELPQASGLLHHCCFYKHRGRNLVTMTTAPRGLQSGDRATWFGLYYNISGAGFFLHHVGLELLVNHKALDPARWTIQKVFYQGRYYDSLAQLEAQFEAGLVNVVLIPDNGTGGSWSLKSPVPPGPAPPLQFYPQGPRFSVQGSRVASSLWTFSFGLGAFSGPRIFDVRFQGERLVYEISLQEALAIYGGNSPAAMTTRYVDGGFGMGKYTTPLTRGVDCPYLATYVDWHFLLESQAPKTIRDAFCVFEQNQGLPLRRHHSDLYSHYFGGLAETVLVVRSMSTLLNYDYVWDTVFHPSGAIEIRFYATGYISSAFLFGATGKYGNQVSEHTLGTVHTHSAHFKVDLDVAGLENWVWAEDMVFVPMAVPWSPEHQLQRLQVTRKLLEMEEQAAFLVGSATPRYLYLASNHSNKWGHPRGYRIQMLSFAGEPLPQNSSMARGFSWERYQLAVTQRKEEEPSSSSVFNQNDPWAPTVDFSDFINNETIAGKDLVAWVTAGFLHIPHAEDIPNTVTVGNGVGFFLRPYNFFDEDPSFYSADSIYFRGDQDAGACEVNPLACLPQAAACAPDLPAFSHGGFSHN
Experiment: Human Semicarbazide-Sensitive Amine Oxidase (SSAO) Assay
Assay type: biochemical
Conditions: recombinant enzyme, 30 minutes preincubation at 37° C., benzylamine substrate, Amplex Ultra Red/HRP fluorescence
Procedure: Compounds were dissolved in DMSO to provide a Concentration Response Curve (CRC; at 500 times the final concentration) over a range of 6-10 dilutions.
Recombinant Human SSAO/VAP-1/AOC3 (R&D systems; Catalog #3957-AO) was used to screen compound potency in vitro, according to previously described methods (J Pharmacol Exp Ther. 2013 November; 347(2):365-74). SSAO enzyme was suspended in 50 mM HEPES buffer to a working concentration of 2.5 μg/ml and 40 μL of this enzyme mixture was then added to each well of a F16 Black Maxisorp 96 well Plate (Nunc, Catalog #475515). Ten microliters of each test compound (at 5 times the final concentration) were added to each well, resulting in a final well volume of 50 μL of the enzyme and inhibitor mixture. The compounds were preincubated with the enzyme for 30 minutes at 37° C., prior to the addition of a 40 μL volume of Amplex Ultra Red (125 uM AUR; Molecular Probes, Catalog # A36006)/Horseradish peroxidase (2.5 U/ml HRP; Sigma-Aldrich Catalog # P8375) oxidase detection reagent containing cytochrome C ([…]; Sigma-Aldrich Catalog # C7752). Cytochrome C was included in the AUR/HRP detection mixture to reduce the background fluorescence that can occur via the spontaneous redox reaction between AUR and HRP. The SSAO enzyme reaction was then initiated by adding 10 μL of the SSAO substrate, benzylamine (Sigma-Aldrich Catalog # B5136), and SSAO activity was measured in kinetic mode over a 30-120 minute sampling period (excit. 544 nm; emit 590 nm; cut off 570 nm; medium gain) to obtain IC50 values for enzyme activity in each treatment well.

Structure (SMILES)	IC50 [nM]
CNC(=O)[C@H]1C2CC3CC1C[C@@](c1ccc(OC/C(=C/F)CN)cc1)(C3)C2 (single isomer, unassigned) [Compound 6, anti-5-(4-(((E)-2-(Aminomethyl)-3-fluoroallyl)oxy)phenyl)-N-methyladamantane-2-carboxamide Hydrochloride]	≤ 10
CNC(=O)[C@H]1C2CC3CC1C[C@](c1ccc(OC/C(=C/F)CN)cc1)(C3)C2 (single isomer, unassigned) [Compound 6.01, syn-5-(4-(((E)-2-(Aminomethyl)-3-fluoroallyl)oxy)phenyl)-N-methyladamantane-2-carboxamide Hydrochloride]	≤ 10
NC/C(=C\F)COc1ccc([C@]23CC4CC(C2)[C@@H](C(=O)NC2CCOCC2)C(C4)C3)cc1 (single isomer, unassigned) [Compound 6.02, syn-5-(4-(((E)-2-(Aminomethyl)-3-fluoroallyl)oxy)phenyl)-N-(tetrahydro-2H-pyran-4-yl)adamantane-2-carboxamide Hydrochloride]	≤ 10
NC/C(=C\F)COc1ccc([C@]23CC4CC(C2)[C@H](C(=O)NC2CCOCC2)C(C4)C3)cc1 (single isomer, unassigned) [Compound 6.03, anti-5-(4-(((E)-2-(Aminomethyl)-3-fluoroallyl)oxy)phenyl)-N-(tetrahydro-2H-pyran-4-yl)adamantane-2-carboxamide Hydrochloride]	≤ 10
NC/C(=C\F)COc1ccc(C23CCC(C(=O)NC4[C@H]5COC[C@H]45)(CC2)CC3)cc1 (stereo in doubt) [Compound 2.66, 4-(4-(((E)-2-(aminomethyl)-3-fluoroallyl)oxy)phenyl)-N-((1R,5S,6s)-3-oxabicyclo[3.1.0]hexan-6-yl)bicyclo[2.2.2]octane-1-carboxamide]	≤ 10
NC/C(=C\F)COc1ccc(C23CCC(C(=O)NC4[C@H]5COC[C@H]45)(CC2)CC3)cc1 (stereo in doubt) [Compound 2.70, 4-(4-(((E)-2-(aminomethyl)-3-fluoroallyl)oxy)phenyl)-N-((1R,5S,6r)-3-oxabicyclo[3.1.0]hexan-6-yl)bicyclo[2.2.2]octane-1-carboxamide]	≤ 10
CO[C@@H]1CCCC(NC(=O)C23CCC(c4ccc(OC/C(=C/F)CN)cc4)(CC2)CC3)C1 (stereo in doubt) [Compound 2.115, 4-(4-(((E)-2-(aminomethyl)-3-fluoroallyl)oxy)phenyl)-N-((1S,3R)-3-methoxycyclohexyl)bicyclo [2.2.2]octane-1-carboxamide]	≤ 10
NC/C(=C\F)COc1ccc(C2(C(N)=O)CCCCC2)cc1 [Compound 1, (E)-1-(4-((2-(Aminomethyl)-3-fluoroallyl)oxy)phenyl)cyclohexanecarboxamide Hydrochloride]	≤ 10
CNC(=O)C1(c2ccc(OC/C(=C/F)CN)cc2)CCCCC1 [Compound 1.01, (E)-1-(4-((2-(Aminomethyl)-3-fluoroallyl)oxy)phenyl)-N-methylcyclohexanecarboxamide]	10 to 100
CNC(=O)C12CCC(c3ccc(OC/C(=C/F)CN)c(C)c3)(CC1)CC2 [Compound 2, (E)-4-(4-((2-(aminomethyl)-3-fluoroallyl)oxy)-3-methylphenyl)-N-methylbicyclo[2.2.2]octane-1-carboxamide]	≤ 10
CNC(=O)C12CCC(c3ccc(OC/C(=C\F)CN)c(C)c3)(CC1)CC2 [Compound 2.01, (Z)-4-(4-((2-(aminomethyl)-3-fluoroallyl)oxy)-3-methylphenyl)-N-methylbicyclo[2.2.2]octane-1-carboxamide]	≤ 10
Cc1cc(C23CCC(C(N)=O)(CC2)CC3)ccc1OC/C(=C/F)CN [Compound 2.02, (E)-4-(4-((2-(aminomethyl)-3-fluoroallyl)oxy)-3-methylphenyl)bicyclo[2.2.2] octane-1-carboxamide]	≤ 10
CNC(=O)C12CCC(c3ccc(OC/C(=C/F)CN)cc3)(CC1)CC2 [Compound 2.03, (E)-4-(4-((2-(aminomethyl)-3-fluoroallyl)oxy)phenyl)-N-methylbicyclo[2.2.2]octane-1-carboxamide Hydrochloride]	≤ 10
COC(=O)C12CCC(c3ccc(OC/C(=C/F)CN)cc3)(CC1)CC2 [Compound 2.04, (E)-methyl 4-(4-((2-(aminomethyl)-3-fluoroallyl)oxy)phenyl)bicyclo [2.2.2]octane-1-carboxylate]	≤ 10
NC/C(=C\F)COc1ccc(C23CCC(C(=O)O)(CC2)CC3)cc1 [Compound 2.05, (E)-4-(4-((2-(amino-methyl)-3-fluoroallyl)oxy)phenyl) bicyclo[2.2.2]octane-1-carboxylic acid]	10 to 100
NC/C(=C\F)COc1ccc(C23CCC(C(=O)NC4CCOCC4)(CC2)CC3)cc1 [Compound 2.06, (E)-4-(4-((2-(Aminomethyl)-3-fluoroallyl)oxy)phenyl)-N-(tetrahydro-2H-pyran-4-yl)bicyclo[2.2.2]octane-1-carboxamide Hydrochloride]	≤ 10
NC/C(=C/F)COc1ccc(C23CCC(C(=O)NC4CCOCC4)(CC2)CC3)cc1 [Compound 2.06b, (Z)-4-(4-((2-(amino-methyl)-3-fluoroally)oxy)phenyl)-N-(tetrahydro-2H-pyran-4-yl)bicyclo[2.2.2]octane-1-carboxamide]	≤ 10
NC/C(=C\F)COc1ccc(C23CCC(C(=O)N4CCOCC4)(CC2)CC3)cc1 [Compound 2.07]	≤ 10
NC/C(=C\F)COc1ccc(C23CCC(C(=O)NCCC(=O)O)(CC2)CC3)cc1 [Compound 2.08, (E)-3-(4-(4-((2-(aminomethyl)-3-fluoroallyl)oxy)phenyl)bicyclo[2.2.2]octane-1-carboxamido)propanoic acid]	≤ 10
NC/C(=C\F)COc1ccc(C23CCC(C(=O)NCc4nnn[nH]4)(CC2)CC3)cc1 [Compound 2.09, (E)-N-((1H-tetrazol-5-yl)methyl)-4-(4-((2-(aminomethyl)-3-fluoroallyl)oxy)phenyl) bicyclo[2.2.2]octane-1-carboxamide]	≤ 10
NC/C(=C\F)COc1ccc(C23CCC(C(N)=O)(CC2)CC3)cc1 [Compound 2.10, (E)-4-(4-((2-(aminomethyl)-3-fluoroallyl)oxy)phenyl) bicyclo[2.2.2]octane-1-carboxamide]	≤ 10
NC/C(=C\F)COc1ccc(C23CCC(C(=O)NCCc4nnn[nH]4)(CC2)CC3)cc1 [Compound 2.11, (E)-N-(2-(1H-tetrazol-5-yl)ethyl)-4-(4-((2-(aminomethyl)-3-fluoroallyl)oxy)phenyl) bicyclo[2.2.2]octane-1-carboxamide]	≤ 10
COC(=O)C1CCN(C(=O)C23CCC(c4ccc(OC/C(=C/F)CN)cc4)(CC2)CC3)CC1 [Compound 2.12, (E)-methyl 1-(4-(4-((2-(aminomethyl)-3-fluoroallyl)oxy)phenyl)bicyclo[2.2.2]octane-1-carbonyl)piperidine-4-carboxylate]	≤ 10
NC/C(=C\F)COc1ccc(C23CCC(C(=O)N4CC(C(=O)O)C4)(CC2)CC3)cc1 [Compound 2.13, (E)-1-(4-(4-((2-(aminomethyl)-3-fluoroallyl)oxy)phenyl)bicyclo[2.2.2]octane-1-carbonyl)azetidine-3-carboxylic acid]	≤ 10
NC/C(=C\F)COc1ccc(C23CCC(C(=O)N4CCC(O)CC4)(CC2)CC3)cc1 [Compound 2.14, (E)-(4-(4-((2-(aminomethyl)-3-fluoroallyl)oxy)phenyl)bicyclo[2.2.2]octan-1-yl) (4-hydroxypiperidin-1-yl)methanone]	≤ 10
COCCNC(=O)C12CCC(c3ccc(OC/C(=C/F)CN)cc3)(CC1)CC2 [Compound 2.15, (E)-4-(4-((2-(aminomethyl)-3-fluoroallyl)oxy)phenyl)-N-(2-methoxyethyl) bicyclo[2.2.2] octane-1-carboxamide]	≤ 10
